Our source for the Selectivity ratio values is ChEMBL document CHEMBL4742400, “Protein kinase mkk4 inhibitors for promoting liver regeneration or reducing or preventing hepatocyte death” (2019).

The species entered for assay [1] is Homo sapiens. In words: Selectivity index, ratio of inhibition of B-raf (unknown origin) to inhibition of partial length human MKK4 (S84 to D399 residues) expressed in mammalian expression system assessed as residual percent of control binding at 100 nM relative to control.
For assay [2], the species on record is Homo sapiens. In words: Selectivity index, ratio of inhibition of full length human JNK1 (M1 to Q384 residues) expressed in mammalian expression system assessed as residual percent of control binding at 100 nM relative to control to inhibition of partial length human MKK4 (S84 to D399 residues) expressed in mammalian expression system assessed as residual percent of control binding at 100 nM relative to control.

The species entered for assay [3] is Homo sapiens. The assay is described as follows: Selectivity index, ratio of inhibition of full length human MKK7 (M1 to R419 residues) expressed in mammalian expression system assessed as residual percent of control binding at 100 nM relative to control to inhibition of partial length human MKK4 (S84 to D399 residues) expressed in mammalian expression system assessed as residual percent of control binding at 100 nM relative to control.

`CCCS(=O)(=O)Nc1ccc(F)c(NC(=O)c2n[nH]c3ncc(-c4ccc(Cl)cc4)cc23)c1F`: the Selectivity ratio in the assay listed under Homo sapiens [1], in the assay listed under Homo sapiens [2] and in the assay filed under Homo sapiens [3] was less than 3 each time.
Take `CCCS(=O)(=O)Nc1ccc(F)c(C(=O)c2n[nH]c3ncc(-c4cccc([N+](=O)[O-])c4)cc23)c1F`: the Selectivity ratio was less than 3 in the assay filed under Homo sapiens [1], 3 in the assay listed under Homo sapiens [2] and 3 in the assay filed under Homo sapiens [3].
In the case of `CCCS(=O)(=O)Nc1ccc(F)c(C(=O)c2n[nH]c3ncc(-c4ccccc4N)cc23)c1F`, the Selectivity ratio in the assay listed under Homo sapiens [1], in the assay filed under Homo sapiens [2] and in the assay listed under Homo sapiens [3] was 3 throughout.
Take `CCCS(=O)(=O)Nc1ccc(F)c(C(=O)c2n[nH]c3ncc(-c4cccc(N(C)C)c4)cc23)c1F`: the results for the Selectivity ratio in the assay listed under Homo sapiens [1], in the assay filed under Homo sapiens [2] and in the assay filed under Homo sapiens [3] were less than 3, 3 and 3, respectively.
`CCCS(=O)(=O)Nc1ccc(F)c(C(=O)c2n[nH]c3ncc(-c4cccc(C(F)(F)F)c4)cc23)c1F`: the Selectivity ratio in the assay filed under Homo sapiens [1], in the assay listed under Homo sapiens [2] and in the assay filed under Homo sapiens [3] was less than 3 throughout.
On to `CCCS(=O)(=O)Nc1ccc(F)c(C(=O)c2n[nH]c3ncc(-c4ccc(Cl)cc4Cl)cc23)c1F`, for which the Selectivity ratio in the assay listed under Homo sapiens [1], in the assay listed under Homo sapiens [2] and in the assay filed under Homo sapiens [3] was 3 each time.
Turning to `CCCS(=O)(=O)Nc1ccc(F)c(C(=O)c2n[nH]c3ncc(-c4ccccc4Cl)cc23)c1F`, the Selectivity ratio in the assay filed under Homo sapiens [1] was 3; in the assay filed under Homo sapiens [2], 10; in the assay listed under Homo sapiens [3] it was 10.
For the compound `CCCS(=O)(=O)Nc1ccc(F)c(C(=O)c2n[nH]c3ncc(-c4ccc(Cl)c(Cl)c4)cc23)c1F`, the Selectivity ratio in the assay filed under Homo sapiens [1] is less than 3; in the assay filed under Homo sapiens [2], 10; in the assay listed under Homo sapiens [3] it was less than 3.
For the compound `CCCS(=O)(=O)Nc1ccc(F)c(C(=O)c2n[nH]c3ncc(-c4ccc(S(C)(=O)=O)cc4)cc23)c1F`, the Selectivity ratio is less than 3 in the assay listed under Homo sapiens [1], more than 30 in the assay filed under Homo sapiens [2] and more than 30 in the assay listed under Homo sapiens [3].
Consider `CCCS(=O)(=O)Nc1ccc(F)c(C(=O)c2n[nH]c3ncc(-c4ccc(OC)cc4)cc23)c1F`, for which the Selectivity ratio is less than 3 in the assay filed under Homo sapiens [1], 10 in the assay listed under Homo sapiens [2] and 10 in the assay listed under Homo sapiens [3].
`CCCS(=O)(=O)Nc1ccc(F)c(C(=O)c2n[nH]c3ncc(-c4ccc(S(N)(=O)=O)cc4)cc23)c1F`: the Selectivity ratio is 3 in the assay listed under Homo sapiens [1], more than 30 in the assay listed under Homo sapiens [2] and more than 30 in the assay filed under Homo sapiens [3].
Regarding `CCCS(=O)(=O)Nc1ccc(F)c(C(=O)c2n[nH]c3ncc(-c4ccc([N+](=O)[O-])cc4)cc23)c1F`, the values for the Selectivity ratio in the assay filed under Homo sapiens [1], in the assay filed under Homo sapiens [2] and in the assay listed under Homo sapiens [3] were 3, 10 and 10, respectively.
As for `CCCS(=O)(=O)Nc1ccc(F)c(C(=O)c2n[nH]c3ncc(-c4ccc(C(N)=O)cc4)cc23)c1F`, the Selectivity ratio is 3 in the assay listed under Homo sapiens [1], more than 30 in the assay filed under Homo sapiens [2] and more than 30 in the assay listed under Homo sapiens [3].
`CCCS(=O)(=O)Nc1ccc(F)c(C(=O)c2n[nH]c3ncc(-c4cccc(Cl)c4)cc23)c1F`: the Selectivity ratio in the assay filed under Homo sapiens [1], in the assay listed under Homo sapiens [2] and in the assay listed under Homo sapiens [3] was less than 3 each time.
As for `CCCS(=O)(=O)Nc1ccc(F)c(C(=O)c2n[nH]c3ncc(-c4ccc(-c5nnn[nH]5)cc4)cc23)c1F`, the Selectivity ratio in the assay filed under Homo sapiens [1] was 3; in the assay filed under Homo sapiens [2], more than 30; in the assay listed under Homo sapiens [3], more than 30.
Take `CCCS(=O)(=O)Nc1ccc(F)c(C(=O)c2n[nH]c3ncc(-c4ccc(C(F)(F)F)cc4)cc23)c1F`: the Selectivity ratio was less than 3 in the assay listed under Homo sapiens [1], 3 in the assay listed under Homo sapiens [2] and 3 in the assay filed under Homo sapiens [3].
Regarding `CCCS(=O)(=O)Nc1ccc(F)c(C(=O)c2n[nH]c3ncc(-c4ccc(Cl)c(C(F)(F)F)c4)cc23)c1F`, the Selectivity ratio in the assay filed under Homo sapiens [1] was less than 3; in the assay listed under Homo sapiens [2], more than 30; in the assay listed under Homo sapiens [3], 3.
For `CCCCS(=O)(=O)Nc1cccc(C(=O)c2n[nH]c3ncc(-c4ccc5c(c4)OCCO5)cc23)c1F` the same measures were 3, less than 3 and 3.
Turning to `CCCS(=O)(=O)Nc1ccc(F)c(C(=O)c2n[nH]c3ncc(-c4ccccc4OC)cc23)c1F`, the Selectivity ratio in the assay listed under Homo sapiens [1] is more than 30; in the assay filed under Homo sapiens [2] it was 10; in the assay filed under Homo sapiens [3], more than 30.
Take `CCCS(=O)(=O)Nc1ccc(F)c(C(=O)c2n[nH]c3ncc(-c4ccccc4C)cc23)c1F`: the Selectivity ratio in the assay filed under Homo sapiens [1] was 3; in the assay filed under Homo sapiens [2] it was 10; in the assay listed under Homo sapiens [3], 10.
Take `CCCS(=O)(=O)Nc1ccc(F)c(C(=O)c2n[nH]c3ncc(-c4ccc(C(=O)O)cc4)cc23)c1F`: the Selectivity ratio in the assay listed under Homo sapiens [1] is 10; in the assay listed under Homo sapiens [2], more than 30; in the assay listed under Homo sapiens [3] it was more than 30.
Regarding `CCCS(=O)(=O)Nc1c(F)ccc(C(=O)c2n[nH]c3ncc(-c4ccc(C(=O)O)cc4)cc23)c1F`, the Selectivity ratio in the assay listed under Homo sapiens [1], in the assay listed under Homo sapiens [2] and in the assay filed under Homo sapiens [3] was more than 30 each time.
Regarding `CCCS(=O)(=O)Nc1ccc(F)c(C(=O)c2n[nH]c3ncc(-c4cc(Cl)cc(Cl)c4)cc23)c1F`, the Selectivity ratio in the assay listed under Homo sapiens [1], in the assay listed under Homo sapiens [2] and in the assay listed under Homo sapiens [3] was less than 3 throughout.
For the compound `O=C(c1ccc(F)c(NS(=O)(=O)Cc2ccccc2)c1F)c1n[nH]c2ncc(-c3ccncc3)cc12`, the Selectivity ratio in the assay listed under Homo sapiens [1], in the assay filed under Homo sapiens [2] and in the assay filed under Homo sapiens [3] was more than 30 throughout.
As to `CCCS(=O)(=O)Nc1ccc(F)c(C(=O)c2n[nH]c3ncc(-c4ccc(S(=O)(=O)NC(C)=O)cc4)cc23)c1F`, the Selectivity ratio in the assay filed under Homo sapiens [1] was less than 3; in the assay filed under Homo sapiens [2], more than 30; in the assay listed under Homo sapiens [3], more than 30.
For the compound `CCCS(=O)(=O)Nc1ccc(F)c(C(=O)c2n[nH]c3ncc(-c4ccc(F)cc4)cc23)c1F`, the Selectivity ratio in the assay filed under Homo sapiens [1] is 10; in the assay listed under Homo sapiens [2], more than 30; in the assay listed under Homo sapiens [3] it was more than 30.
On to `CCCS(=O)(=O)Nc1ccc(F)c(C(=O)c2n[nH]c3ncc(-c4ccc(N)cc4)cc23)c1F`, for which the Selectivity ratio was 10 in the assay filed under Homo sapiens [1], more than 30 in the assay listed under Homo sapiens [2] and more than 30 in the assay listed under Homo sapiens [3].
With `CCCS(=O)(=O)Nc1ccc(F)c(S(=O)(=O)c2n[nH]c3ncc(-c4ccc(Cl)cc4)cc23)c1F`, the Selectivity ratio in the assay listed under Homo sapiens [1], in the assay filed under Homo sapiens [2] and in the assay filed under Homo sapiens [3] was less than 3 throughout.
`CCCS(=O)(=O)Nc1ccc(F)c(C(=O)c2n[nH]c3ncc(-c4cccc(F)c4)cc23)c1F`: the Selectivity ratio in the assay listed under Homo sapiens [1] was less than 3; in the assay filed under Homo sapiens [2], 10; in the assay listed under Homo sapiens [3], 10.
